{"source": "patent US9545393B2", "about": "“Methods and compositions for treating pain” (The Board of Trustees of the Leland Stanford Junior …, priority 2012, dated 2017)", "key": {"[1]": {"test_system": "rats subjected to carrageenan insult to the right hind paw", "assay": "Randall-Selitto paw pressure test, carrageenan-induced hyperalgesia in rats", "assay_type": "in vivo, rat", "method": "Rats. Male Wistar rats (170-190 g) were provided by Charles River Laboratories or Butantan Institute Animal Facility and housed in a temperature-controlled (22±1° C.) and light-controlled (12/12 h light/dark cycle) room. All rats were housed in their surrounding for at least 3 days. Groups of 5-6 rats were used.\nDrugs Used. 0.1 ml saline (control), carrageenan (200 μg for rats, 100 μg for mice; Marine Colloids), or prostaglandin E2 (100 ng, Sigma) was administered by intraplantar injection into the right hind paw to induce hyperalgesia. These doses were chosen based on previous studies by our laboratory groups (Aley K O, et al., (2000) Chronic hypersensitivity for inflammatory nociceptor sensitization mediated by the epsilon isozyme of protein kinase C. The Journal of neuroscience: the official journal of the Society for Neuroscience 20: 4680-4685; Konno K, et al., (2008) Crotalphine, a novel potent analgesic peptide from the venom of the South American rattlesnake Crotalus durissus terrificus. Peptides 29: 1293-1304).\n(§1) Alda-1 dose (2 mg/kg/per injection, dissolved in 50% PEG/50% DMSO) was established in preliminary studies and given in multiple doses due to its estimated short half-life. Alda-1 was injected subcutaneously to the dorsal side of the neck 15 minutes before carrageenan or saline, and again at 30 and 150 minutes after carrageenan, prostaglandin E2 or saline injection. One subset of animals received Alda-1 only 30 and 150 minutes after carrageenan injection. Where indicated, naloxone (1 mg/kg per injection) or vehicle (saline) was given 10 minutes prior to each Alda-1 treatment to the dorsal side of the neck.\nNociception Assessment. The experimental performer was blinded to both genotype and/or treatments. Nociceptive response was assessed by the von Frey method for mice and the Randall-Selitto method for rats immediately before and 180 minutes after carrageenan or prostaglandin E2 injection. Both mice and rats were acclimated to the testing equipment one day before baseline testing.\nRandall-Selitto method: Nociceptive threshold was determined using the Randall-Selitto paw pressure test (Ugo-Basile), as previously described (Gutierrez V P, et al., (2008) Crotalphine induces potent antinociception in neuropathic pain by acting at peripheral opioid receptors. European journal of pharmacology 594: 84-92). The baseline values varied between 65-75 g of force. Animals with baseline out of this range (about 10%) were excluded prior to initiating the study in order to achieve uniform testing."}, "[2]": {"test_system": "ALDH2 wild type mice", "assay": "von Frey hair test, carrageenan-induced acute pain model, wild type mice", "assay_type": "in vivo, mouse", "settings": "von Frey hair (1.20 gram in FIG. 1E), Alda-1 2 mg/kg s.c."}, "[3]": {"test_system": "ALDH2 *1/*2 heterozygous mice", "assay": "von Frey hair test, carrageenan-induced acute pain model, ALDH2 *1/*2 heterozygous mice", "assay_type": "in vivo, mouse", "settings": "von Frey hair (1.20 gram in FIG. 1E), Alda-1 2 mg/kg s.c."}, "[4]": {"test_system": "carrageenan-induced edema", "assay": "Edema assessment of the carrageenan-injected paw (plethysmometer)", "assay_type": "in vivo, rat", "settings": "rats, 3 hr after carrageenan; Alda-1-treated versus vehicle-treated", "method": "Edema Assessment. Inflammation-induced edema of the injected paw was assessed using a plethysmometer (Ugo Basile) (Clapper J R, et al., (2010) Anandamide suppresses pain initiation through a peripheral endocannabinoid mechanism. Nature neuroscience 13: 1265-1270; Van Arman C G, et al., (1965) Some details of the inflammation caused by yeast and carragenin. J Pharmacol Exp Ther 150: 328-333)."}, "[5]": {"test_system": "neutrophil elastase", "assay": "Western blot of neutrophil elastase in paw after carrageenan", "assay_type": "in vivo, rat", "settings": "rats, carrageenan group treated with Alda-1; Western blot quantification", "method": "Biochemical Studies In Rats and Mice. Protein was isolated from rat paw tissue at 3 hours after treatment or from liver tissue of mutant or wild type mice. Tissues were homogenized in buffer containing (Hepes 10 mM, NaCl 0.9%, EGTA 1 mM, DTPA 100 μM, Triton-X 1%, Protease and Phosphatase inhibitors (AEBSF, Aprotinin, Bestatin, E-64, Leupeptin, Pepstatin A, Sodium orthovanadate, Sodium molybdate, Sodium tartrate, Imidazole, Cantharidin, (−)-p-Bromolevamisole oxalate and Calyculin A). The samples were centrifuged at 700 g for 5 min at 4° C. Mitochondrial fraction from liver was obtained as previously described (Chen, et al. (2008) Activation of aldehyde dehydrogenase-2 reduces ischemic damage to the heart. Science 321, 1493-1495; Sun, L., et al. ALDH2 activator inhibits increased myocardial infarction injury by nitroglycerin tolerance. Sci Transl Med 3, 107ra111). Activation of aldehyde dehydrogenase-2 reduces ischemic damage to the heart. Science 2008; 321:1493-5). The protein concentration was determined in the supernatants by using Bradford (Bradford, M. M. (1976). A rapid and sensitive method for the quantitation of microgram quantities of protein utilizing the principle of protein-dye binding. Anal Biochem 72, 248-254).\nWestern blot analysis. […] Quantification analysis of blots was performed with Image J software, using GAPDH as a loading control."}, "[6]": {"assay": "Half-life of Alda-1 (preliminary studies)", "assay_type": "in vivo", "settings": "estimated; reason for multiple doses", "method": "as §1"}, "[7]": {"biological_target": "T1, mutant ALDH2*2 (Homo sapiens, UniProt P05091, E504K)", "T1 sequence (P05091 18-517 E504K)": "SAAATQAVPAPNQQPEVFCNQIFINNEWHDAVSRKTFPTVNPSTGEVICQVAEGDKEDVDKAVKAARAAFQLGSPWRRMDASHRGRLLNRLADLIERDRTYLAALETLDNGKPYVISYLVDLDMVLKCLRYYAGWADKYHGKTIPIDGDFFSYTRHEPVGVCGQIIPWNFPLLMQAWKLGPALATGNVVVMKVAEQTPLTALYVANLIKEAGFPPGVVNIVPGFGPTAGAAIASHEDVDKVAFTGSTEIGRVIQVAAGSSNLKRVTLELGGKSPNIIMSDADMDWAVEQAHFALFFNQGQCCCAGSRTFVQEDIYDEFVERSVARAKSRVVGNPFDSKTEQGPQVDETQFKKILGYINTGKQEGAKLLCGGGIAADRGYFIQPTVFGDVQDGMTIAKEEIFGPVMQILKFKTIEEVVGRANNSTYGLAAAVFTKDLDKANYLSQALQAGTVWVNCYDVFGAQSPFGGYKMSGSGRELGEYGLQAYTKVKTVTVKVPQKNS", "settings": "Perez-Miller et al, 2010; cited from earlier work"}}, "note": "Entries after “also recorded” stand apart in the source; their conditions may differ.", "data": [{"smiles": "O=C(NCc1ccc2c(c1)OCO2)c1c(Cl)cccc1Cl", "note": "[Alda-1, N-(1,3-benzodioxol-5-ylmethyl)-2,6-dichlorobenzamide]", "values": [{"measurement": "Nociceptive threshold when Alda-1 is given after the insult", "setting": "[1]; Alda-1 2 mg/kg s.c. only 30 and 150 minutes after carrageenan, Randall-Selitto, P<0.0001, 2 mg/kg", "value": "increased the nociceptive threshold; also recorded: significantly increased nociceptive threshold"}, {"measurement": "Nociceptive threshold (FIG. 1B)", "setting": "[1]; carrageenan insult, Alda-1 2 mg/kg s.c., 3 hours after insult, P<0.001", "value": "significantly increased nociceptive threshold"}, {"measurement": "Increase of nociceptive threshold", "setting": "[1]; carrageenan-induced model, Alda-1 2 mg/kg s.c. 15 min before and 30 and 150 min after insult, tested 3 hours after insult", "value": 2, "unit": "fold"}, {"measurement": "Reduction of carrageenan-induced hyperalgesia compared with atenolol or celecoxib", "setting": "[1]; comparison to previous publication using the same rat hyperalgesia model (Chacur et al, 2003)", "value": "more effective than atenolol or celecoxib"}, {"measurement": "Effect of Alda-1 on nociceptive threshold in the presence of naloxone", "setting": "[1]; naloxone 1 mg/kg s.c. 10 minutes before each Alda-1 treatment, Alda-1 after carrageenan", "value": "not blunted"}, {"measurement": "Nociceptive threshold relative to vehicle-treated mice", "setting": "[2]", "value": "significantly increased pain threshold; also recorded: doubling the nociceptive threshold"}, {"measurement": "Response to nociceptive stimulus / pain threshold", "setting": "[3]", "value": "significantly increased pain threshold; also recorded: bringing the response to wild type levels"}, {"measurement": "Carrageenan-induced increase in paw diameter (edema)", "setting": "[4]", "value": "no differences; also recorded: unaffected"}, {"measurement": "Neutrophil elastase (marker of inflammation)", "setting": "[5]", "value": "220±26"}, {"measurement": "Half-life", "setting": "[6]", "value": "short"}, {"measurement": "Effect on activity of mutant ALDH2*2", "setting": "[7]", "value": "corrects ALDH2 inactivity"}]}]}
